# Measured values reported in US20230220047A1, “PEPTIDES FOR TREATMENT OF SEPSIS AND CANCER” (NORWEGIAN UNIVERSITY OF SCIENCE AND TECHNOLOGY (NTNU), priority 2020, published 2023).
# Entries after “also recorded” stand apart in the source; their conditions may differ.
# What was measured:
# [1] = system: ANBL-6 multiple myeloma cells; assay: CellTiter-Glo cell viability assay, ANBL-6; format: cell-based
# [2] = system: TLR8; assay: Primary human macrophages stimulated with CL075: cytokine mRNA, Western blot, IRAK precipitations; format: cell-based; conditions: TLR8-stimulated cells, 15 μM, CL075 3 μg/ml
# Protocol: Primary human macrophages (PBMC derived, differentiated in media with 10% human serum and M-CSF 20 ng/ml, 7 days) were stimulated with K12 LPS (100 ng/ml), FSL-1 (100 ng/ml) or CL075 (3 μg/ml). […] (B) qPCR for mRNA expression of IFNβ, IL-6, TNF and IL-1β, average for three biological replicates, error bars ±SD.
# Primary human macrophages (7 days) were pre-treated with Pen or P7-Pen (15 μM) for 30 min before addition of LPS (100 ng/ml), FSL-1 (100 ng/ml) or CL075 (3 μg/ml). A: Protein expression in lysates for input control. B,C: Precipitations were performed using sheep anti-IRAK4 (B) or anti-IRAK1 (C) polyclonal antibodies covalently bound to magnetic beads.
# [3] = molecular target: T1, Mal interaction with MyD88 and IRAK1 (Homo sapiens, UniProt P58753); assay: Anti-Mal immunoprecipitation from LPS-stimulated primary human macrophages; format: cell-based; conditions: 15 μM, 30 min pre-treatment, LPS 30 min or 1 h
# T1 construct: endogenous in cells; host or cells: primary human macrophages, LPS-stimulated
# Protocol: (A) Mal^Flag was overexpressed in HEK293T cells. […] Lysis buffer contained 300 mM NaCl and 1% Triton X100. (B) Mal^Flag and SLAMF1 wt or deletion mutants (Δ20 or Δ67 C-terminal amino acids) were co-expressed in HEK293T cells followed by immunoprecipitations with anti-Flag beads and Western blot analysis. (C) Primary human macrophages were pre-treated with 15 μM peptides for 30 min, stimulated with LPS for another 30 min or 1 h, lysed and used for IPs. Precipitations were performed using goat anti-Mal polyclonal antibodies covalently bound to magnetic beads, followed by Western blot analysis. Proteins in lysates were analysed for input control (A-C).
# [4] = system: TLR8; assay: qPCR of CL075-induced TLR8-mediated cytokine expression in primary human monocytes; format: cell-based; conditions: 15 μM, CL075 1 μg/ml
# Protocol: Cells were pre-treated with 15 μM peptides for 30 min, followed by addition of LPS (100 ng/ml) (A) or CL075 (1 μg/ml) (B) for 2 or 4 h. Each dot on the graphs corresponds to the average value for one donor, the lines show the mean values for all donors, and error bars indicate the SD.
# Total RNA was isolated from the cells using Qiazol reagent #79306 from QIAGEN, and chloroform extraction followed by purification on RNeasy Mini columns with DNAse digestion (Qiagen). cDNA was prepared using the Maxima First Strand cDNA Synthesis Kit for quantitative real-time polymerase chain reaction (RT-qPCR) (Thermo Fisher Scientific) according to the manufacturer's protocol. qPCR was performed using the PerfeCTa qPCR FastMix (Quanta Biosciences) in replicates and cycled in a StepOnePlus™ Real-Time PCR cycler. The following TaqMan® Gene Expression Assays (Applied Biosystems®) were used: IFNβ (Hs01077958_s1), TNF (Hs00174128_m1), TBP (Hs00427620_m1), CXCL10 (Hs01124251_g1), IL-6 (Hs00174131_m1) and IL-1β (Hs01555410_m1), for human cells; Ifnβ (Mm00439552_s1), Tnf (Mm00443258_m1), Tbp (Mm01277042_m1) and II-1β (Mm00434228_m1), for mouse cells. […] Relative expression was calculated using Pfaffl's mathematical model (Pfaffl, Nucleic Acids Research 29(9): e45, 2001). […] Statistical significance was evaluated in GraphPad Prizm 5.03. […] The difference between the two groups was determined by two-tailed t test. […]
# [5] = system: TLR4; assay: Western blot of LPS signalling in murine immortalized BMDMs; format: cell-based, mouse; conditions: murine macrophages, 10 μM
# Protocol: Western blot analysis of lysates from cells pretreated with media containing controls (water, DMSO or 10 μM control peptide C3-Pen) or P7-Pen peptide for 30 min before stimulation with LPS (K12 LPS, 100 ng/ml) for designated time periods.
# (§1) Protein pellets were dissolved by heating protein pellets for 10 min at 95° C. in buffer containing 4 M urea, 1 SDS (Sigma) and NuPAGE® LDS Sample Buffer (4×) (Thermo Fisher Scientific). Otherwise, lysates were made using 1× RIPA lysis buffer (150 mM NaCl, 50 mM TrisHCl (pH 7.5), 1% Triton X100, 5 mM EDTA, protease inhibitors, phosphatase inhibitors). For Western blot analysis we used pre-cast protein gels NuPAGE™ Novex™ and iBlot Transfer Stacks iBlot Gel Transfer Device (Thermo Fisher Scientific). Proteins were transferred to the membrane by dry-blotting using iBlot® 2 NC Regular/Mini Stacks (Life Technologies) in the iBlot 2 Dry Blotting System (Life Technologies). After secondary antibody incubation, membranes were washed and incubated with HRP substrate solution (SuperSignal™ West Femto Maximum Sensitivity Substrate (Thermo Fisher Scientific)). Images were taken using Odyssey® Fc (LI-CORE). Quantification graphs were generated by the analysis of signal intensities for protein bands (protein of interest and endogenous loading control—β-tubulin from the same membrane) using Odyssey software (LI-CORE). Data were normalised to the expression levels of β-tubulin and presented as a relative fold change to the control sample.
# In addition, pre-treatment of murine macrophages with P7-Pen inhibited LPS-mediated phosphorylation of TBK1 and IκBα, and decreased phosphorylation of p38 MAPK (FIG. 23).
# [6] = system: STAT1; assay: Western blot of STAT1 phosphorylation in LPS-stimulated THP-1 cells; format: cell-based, human; conditions: LPS
# Protocol: as §1
# T1 sequence (P58753 whole entry): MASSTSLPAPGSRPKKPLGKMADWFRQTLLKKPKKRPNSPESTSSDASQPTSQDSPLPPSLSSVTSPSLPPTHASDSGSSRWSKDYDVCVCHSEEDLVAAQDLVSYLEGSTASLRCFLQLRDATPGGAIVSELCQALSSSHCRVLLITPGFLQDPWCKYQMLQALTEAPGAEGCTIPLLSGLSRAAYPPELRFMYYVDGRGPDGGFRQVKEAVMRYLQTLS
substance,measurement,setting,value
Ac-ITVAASVTLTGRQIKIWFQNRRMKWKK-NH2 [Peptide P7-A4-Pen],combination effect with melphalan at low melphalan concentrations,"[1]; ANBL-6, 5 μM peptide",synergistic effect
same,cytotoxic effect of combination with melphalan relative to peptide or melphalan alone,"[1]; ANBL-6, 5 μM peptide plus melphalan 8-20 μM, 48 h",much-enhanced cytotoxic effect
Ac-ITVYASVTLTGRQIKIWFQNRRMKWKK-NH2 [Peptide P7-Pen],IRAK1 and IRAK4 recruitment to MyD88 at an early time point,[2],inhibitory effect
same,late recruitment of IRAKs or phosphorylation of p38 MAPKs,[2],no effect
same,Mal recruitment to the MyD88 complex and IRAK1,[3],totally abrogated; also recorded: disruption
same,CL075-induced TLR8-mediated IFNβ mRNA expression,[4],inhibited
same,expression of proinflammatory cytokines,[4],no significant effect
same,LPS-mediated phosphorylation of TBK1 and IκBα,[5],inhibited
same,phosphorylation of p38 MAPK,[5]; LPS,decreased
Ac-ITVYASVTLTGRRRRRRRRRRR-NH2 [Peptide P7-Arg11],phosphorylation of STAT1,[6]; 10 μM,strongly inhibited
same,phosphorylation of STAT1,[6]; 20 μM,fully abrogated
